# Assay results as given in article PMC7377239, “Cardiovascular Effects of Polychlorinated Biphenyls and Their Major Metabolites” (Environmental Health Perspectives, 2020).
# Read-outs that look alike come from different tables or passages of the source.
# Key:
# [1] = test system: HUVECs; experiment: High-content imaging cytotoxicity in HUVECs, 24 h; format: cell-based, human; conditions: Homo sapiens, HUVEC, 24 h, HUVECs; for viability at 0.01 µM / activity at 0.01 µM / viability at 0.1 µM / activity at 0.1 µM / viability at 1 µM / activity at 1 µM / viability at 10 µM / activity at 10 µM / viability at 100 µM / activity at 100 µM: 0.00 µM = 100.00; for viability at 0.1 µM / activity at 0.1 µM: 0.10 µM; for minimal effective concentration: top concentration 100.00 µM
# Description: Similar to the cultivation of iCell®-endothelial cells, HUVEC maintenance and experimentation are detailed elsewhere ([Iwata et al. 2017]). Briefly, HUVECs were thawed, seeded, and grown in T75 tissue culture flasks in Medium 199 with EGM™-2 BulletKits™. HUVECs were incubated at regular cell culture conditions, 37°C and 5% CO2 , and passaged every 2–3 d using TrypLE™ Express. To ensure adequate endothelial function, experiments were performed with cells between passages 1 and 5.
# Cytotoxicity was assessed in parallel experiments. For iCell®-endothelial cells, 384-well plates were coated with a 30μg/mL fibronectin solution ( 10μL/well ) and incubated for 2 h at RT. iCell®-endothelial cells were dissociated with TrypLE™ Express and prepared into a solution to achieve 750 cells per well and 50μL of total volume. The fibronectin solution was removed from the 384-well plate, and cells were plated. For HUVECs, similar dissociation and the same cell density were used for plating with the exclusion of the fibronectin solution. Cells were incubated at 37°C and 5% CO2 until a monolayer was formed, typically 3–5 d. 2×PCB plates were created with the requisite maintenance medium. Before treatment, the medium in the wells was exchanged to 25μL/well of fresh maintenance medium. 2×PCB chemical solutions ( […] ) were added. After 24 h incubation at 37°C and 5% CO2 , cells were stained with Hoechst 33342, MitoTracker™ Orange, and calcein AM for 20 min before replacing the staining media with FluoroBright DMEM. Cell culture plates were imaged using the ImageXpress® Micro Confocal high-content imaging system (Molecular Devices). Images were acquired at 10× magnification with DAPI, TRITC, or FITC filter (Hoechst 33342, MitoTracker™, or calcein AM, respectively). The multiwavelength cell scoring applications module in MetaXpress™ (Molecular Devices) was used to analyze the images.
# (§1) Phenotypic responses were quantitatively assessed using concentration–response modeling as detailed elsewhere ([Sirenko et al. 2017]). Briefly, phenotypic readouts were normalized to vehicle controls and fit to a four-parameter logistic model in R studio software (version 3.1.1; R Development Core Team). Following EPA guidance on dose–response modeling, a cutoff of one standard deviation across means of vehicle control (i.e., 0.5% vol/vol DMSO in cell culture media) wells was applied to determine the point-of-departure (POD) values ([U.S. EPA 2012]). In the absence of a concentration–response, the highest tested concentration (i.e., 100μM ) was assigned as “no observable adverse effect level.” The concentration–response assessment R script, as well as templates for vehicle and concentration–response data, are available as a supplement to Sirenko et al. ([2017]). The ability of physicochemical properties to predict differences in PODs were evaluated by multiregression and mixed-effects modeling using R.
# [2] = test system: iCell cardiomyocytes (human iPSC-derived cardiomyocytes); experiment: High-content imaging of cytotoxicity and mitochondrial integrity in iPSC-CMs; format: cell-based; conditions: Homo sapiens; for viability at 0.01 µM / activity at 0.01 µM / viability at 0.1 µM / activity at 0.1 µM / viability at 1 µM / activity at 1 µM / viability at 10 µM / activity at 10 µM / viability at 100 µM / activity at 100 µM: Cardiomyocyte, 0.00 µM = 100.00; for viability at 0.1 µM / activity at 0.1 µM: 0.10 µM; for minimal effective concentration: iPSC-CM
# Description: Details on cardiomyocyte cell culture are described in detail elsewhere ([Grimm et al. 2015b]; [Sirenko et al. 2013a]). Briefly, tissue-culture treated 384 well plates were gelatinized with 25μL per well of 0.1% (w/v) gelatin in water for 2 h at 37°C and 5% CO2 . Individual vials of cells were thawed for 4 min in a water bath maintained at 37°C. Thawed cells were resuspended in 10ml plating medium containing 1:500 (vol/vol) penicillin/streptomycin solution at room temperature (RT). Live cell counts for each cell suspension were determined by trypan blue staining and cells were further diluted to provide final cell densities of 2×10^5 viable cells/ml. Thus, 5,000 cells suspended in 25μL media were transferred per well after the gelatin solution had been discarded. Cell culture plates were rested for 30 min at RT before they were incubated for 48 h at 37°C and 5% CO2 . Then, a media exchange with 30μL of fresh maintenance medium containing 1:500 (vol/vol) penicillin/streptomycin solution was performed, and cell media were subsequently changed every 48 h for 12 d. On the experiment day, the medium was completely exchanged with either 25μL (for Ca^2+ flux assay) or 40μL (for imaging) of fresh medium.
# Cytotoxicity and effects on mitochondrial integrity of various PCBs and PCB metabolites in induced pluripotent stem cell-CMs (iPSC-CMs) were assessed using high-content cellular imaging in ImageXpress® Micro Confocal (Molecular Devices) as detailed in ([Grimm et al. 2015b]). Cells in 40μL maintenance media were treated with 10μL of 5× chemical solutions to provide test chemicals at final assay concentrations ranging from 0.01 to 100μM . […] Next, sample wells were treated with 50μL equilibrated 2× concentrated staining solution (maintenance medium containing Hoechst 33342, 4μg/mL and MitoTracker™ Orange, 0.4μM ). Microplates were then incubated for 15 min at 37°C and 5% CO2 before cells were washed twice with 30μL maintenance medium. All media were aspirated and discarded, and cells were fixed with […] of a 3.7% formaldehyde solution for 15 min at 37°C and 5% […] . Fixed cells were washed 3× with 25μL PBS before image acquisition using the DAPI (Hoechst 33342) and Cy3 (MitoTracker™ Orange) filters at 10× magnification on the ImageXpress® Micro Confocal high-content confocal microscope (Molecular Devices). The multiwavelength cell scoring applications module in MetaXpress® was used to analyze acquired images.
# as §1
# [3] = 24 hr, read-out: huvec.cyto.24hr
# [4] = 24 hr, read-out: huvec.mito.24hr
# [5] = 24 hr, read-out: huvec.mitoint.24hr
# [6] = 24 hr, read-out: huvec.nma.24hr
# [7] = 24 hrs, read-out: huvec.tc.24hrs
smiles,measurement,setting,value
Oc1ccccc1-c1ccc(Cl)cc1 [2'-OH PCB3],viability at 0.01 µM,[1]; [3],88.2%
same,activity at 0.01 µM,[1]; [4],87.7%
same,activity at 0.01 µM,[1]; [5],94.4%
same,activity at 0.01 µM,[1]; [6],93.4%
same,viability at 0.1 µM,[1]; [3],84.3%
same,activity at 0.1 µM,[1]; [4],84%
same,activity at 0.1 µM,[1]; [5],125%
same,activity at 0.1 µM,[1]; [6],97.1%
same,viability at 1 µM,[1]; [3],93%
same,activity at 1 µM,[1]; [4],92.5%
same,activity at 1 µM,[1]; [5],107%
same,activity at 1 µM,[1]; [6],95.6%
same,viability at 10 µM,[1]; [3],90.2%
same,activity at 10 µM,[1]; [4],88.2%
same,activity at 10 µM,[1]; [5],104%
same,activity at 10 µM,[1]; [6],92.6%
same,viability at 100 µM,[1]; [3],47.5%
same,activity at 100 µM,[1]; [4],38.4%
same,activity at 100 µM,[1]; [5],9.54%
same,activity at 100 µM,[1]; [6],65%
same,minimal effective concentration,"[1]; 24 hr, read-out: huvec.cyto.24hr POD",5.19 µM
same,minimal effective concentration,"[1]; 24 hr, read-out: huvec.mito.24hr POD",4.06 µM
same,minimal effective concentration,"[1]; 24 hr, read-out: huvec.mitoint.24hr POD",34.4 µM
same,minimal effective concentration,"[1]; 24 hr, read-out: huvec.nma.24hr POD",1.6 µM
same,viability at 0.01 µM,[1]; [7],88.2%
same,viability at 0.1 µM,[1]; [7],84.3%
same,viability at 1 µM,[1]; [7],93.2%
same,viability at 10 µM,[1]; [7],90.3%
same,viability at 100 µM,[1]; [7],84.1%
same,minimal effective concentration,"[1]; 24 hrs, read-out: huvec.tc.24hrs POD",5.19 µM
same,viability at 0.01 µM,"[2]; 1.5 h, read-out: cm.cam.90min",104%
same,activity at 0.01 µM,"[2]; 1.5 h, read-out: cm.mii.90min",111%
same,activity at 0.01 µM,"[2]; 1.5 h, read-out: cm.mito.90min",104%
same,viability at 0.01 µM,"[2]; 1.5 h, read-out: cm.tc.90min",104%
same,viability at 0.1 µM,"[2]; 1.5 h, read-out: cm.cam.90min",95.6%
same,activity at 0.1 µM,"[2]; 1.5 h, read-out: cm.mii.90min",113%
same,activity at 0.1 µM,"[2]; 1.5 h, read-out: cm.mito.90min",95.6%
same,viability at 0.1 µM,"[2]; 1.5 h, read-out: cm.tc.90min",95.6%
same,viability at 1 µM,"[2]; 1.5 h, read-out: cm.cam.90min",101%
same,activity at 1 µM,"[2]; 1.5 h, read-out: cm.mii.90min",101%
same,activity at 1 µM,"[2]; 1.5 h, read-out: cm.mito.90min",101%
same,viability at 1 µM,"[2]; 1.5 h, read-out: cm.tc.90min",101%
same,viability at 10 µM,"[2]; 1.5 h, read-out: cm.cam.90min",102%
same,activity at 10 µM,"[2]; 1.5 h, read-out: cm.mii.90min",92.5%
same,activity at 10 µM,"[2]; 1.5 h, read-out: cm.mito.90min",102%
same,viability at 10 µM,"[2]; 1.5 h, read-out: cm.tc.90min",102%
same,viability at 100 µM,"[2]; 1.5 h, read-out: cm.cam.90min",0%
same,activity at 100 µM,"[2]; 1.5 h, read-out: cm.mii.90min",32.7%
same,activity at 100 µM,"[2]; 1.5 h, read-out: cm.mito.90min",0.07%
same,viability at 100 µM,"[2]; 1.5 h, read-out: cm.tc.90min",0.07%
same,viability at 0.01 µM,"[2]; 24 h, read-out: cm.cam.24hrs",95.1%
same,activity at 0.01 µM,"[2]; 24 h, read-out: cm.mii.24hrs",98.5%
same,activity at 0.01 µM,"[2]; 24 h, read-out: cm.mito.24hrs",92.6%
same,viability at 0.01 µM,"[2]; 24 h, read-out: cm.tc.24hrs",94.5%
same,viability at 0.1 µM,"[2]; 24 h, read-out: cm.cam.24hrs",94.5%
same,activity at 0.1 µM,"[2]; 24 h, read-out: cm.mii.24hrs",96%
same,activity at 0.1 µM,"[2]; 24 h, read-out: cm.mito.24hrs",91.2%
same,viability at 0.1 µM,"[2]; 24 h, read-out: cm.tc.24hrs",94.3%
same,viability at 1 µM,"[2]; 24 h, read-out: cm.cam.24hrs",99.7%
same,activity at 1 µM,"[2]; 24 h, read-out: cm.mii.24hrs",98.3%
same,activity at 1 µM,"[2]; 24 h, read-out: cm.mito.24hrs",96.7%
same,viability at 1 µM,"[2]; 24 h, read-out: cm.tc.24hrs",99.8%
same,viability at 10 µM,"[2]; 24 h, read-out: cm.cam.24hrs",103%
same,activity at 10 µM,"[2]; 24 h, read-out: cm.mii.24hrs",74.7%
same,activity at 10 µM,"[2]; 24 h, read-out: cm.mito.24hrs",104%
same,viability at 10 µM,"[2]; 24 h, read-out: cm.tc.24hrs",103%
same,viability at 100 µM,"[2]; 24 h, read-out: cm.cam.24hrs",0%
same,activity at 100 µM,"[2]; 24 h, read-out: cm.mii.24hrs",0%
same,activity at 100 µM,"[2]; 24 h, read-out: cm.mito.24hrs",0%
same,viability at 100 µM,"[2]; 24 h, read-out: cm.tc.24hrs",0%
same,minimal effective concentration,"[2]; 1.5 h, read-out: cm.cam.90min POD",32.8 µM
same,minimal effective concentration,"[2]; 1.5 h, read-out: cm.mii.90min POD",9.15 µM
same,minimal effective concentration,"[2]; 1.5 h, read-out: cm.mito.90min POD",41.4 µM
same,minimal effective concentration,"[2]; 1.5 h, read-out: cm.tc.90min POD",34.5 µM
same,minimal effective concentration,"[2]; 24 h, read-out: cm.cam.24hrs POD",40.4 µM
same,minimal effective concentration,"[2]; 24 h, read-out: cm.mii.24hrs POD",6.56 µM
same,minimal effective concentration,"[2]; 24 h, read-out: cm.mito.24hrs POD",29.8 µM
same,minimal effective concentration,"[2]; 24 h, read-out: cm.tc.24hrs POD",35.9 µM
